# Reference: PubChem BioAssay AID2060497 (Molecular Pharmacology Branch, DTP, NCI, 2025)
# Where “and” joins values, the source holds several entries; their conditions need not be identical. Equal entries are not always repeated.
# Test system: 317291-083-R-J1-PDC complex spheroids, viability
# Assay: Anticancer human tumor 317291-083-R-J1-PDC patient-derived soft tissue sarcoma cell line growth inhibition [GQUAD]
# Settings: for viability, T/C: stronger effect = lower value
# Description: DNA G-quadruplex Stabilizer Agents in Combinations in Complex Spheroids
# A high-throughput screen of multi-cell type tumor spheroids was designed to identify active combinations of DNA G-quadruplex stabilizer agents and targeted small molecules. Complex spheroids include a stromal component modeled by human endothelial cells (HUVEC) and fibroblasts modeled by human mesenchymal stem cells (MSCs). The concentration ranges selected for each drug and investigational agent were based upon clinically achievable concentrations if the clinical Cmax of the agent was known.
# Compounds. The drugs and investigational agents: pidnarulex (CX-5461; NSC782164), APTO-253 (NSC789042), BRACO-19 (NSC847499), peposertib (NSC802822), ceralasertib (NSC780249), elimusertib (NSC800525), camonsertib (NSC841442), AZD-1390 (NSC803789), olaparib (NSC753686), talazoparib (NSC767125), ART-558 (NSC835418), sotorasib (NSC818433), MRTX-1133 (NSC836407), SN-38 (NSC673596), topotecan (NSC609699), etoposide (NSC141540), doxorubicin (NSC123127), gemcitabine (NSC613327), 5-fluorouracil (NSC19893), paclitaxel (NSC125973), vemurafenib (NSC761431), panobinostat (NSC761190), R-306465 (JNJ-16241199; NSC773264), adavosertib (NSC754352), TP-3654 (NSC805149), carboplatin (NSC241240), KSQ-4279 (NSC840948), and staurosporine (NSC755774) were obtained from the National Cancer Institute (NCI) Developmental Therapeutics Program Chemical Repository (34). The FDA-approved anticancer drug set is available from the NCI Developmental Therapeutics Program. […] The stock solutions were prepared in dimethyl sulfoxide (DMSO, Sigma-Aldrich, St. Louis, MO, cat. D2650) at 800-fold the tested concentration and stored at -70 degrees C prior to their use. All drugs and investigational agents were tested over a range starting from a high concentration at or near the clinical Cmax and decreasing in half-log increments. If the clinical Cmax for an agent had not been determined, the highest concentration tested was 10 microM.
# 2.3 Cell Culture. All cells were maintained in an incubator at 37 degrees C and 5% CO2 with 95% humidity. The PDC lines were cultured according to standard operating procedures established by the NCI PDMR. All PDCs were thawed and cultured in Matrigel-coated flasks prepared with a working solution of 1X Ham's F-12 nutrient mix, without supplementation (Invitrogen, cat. 11765054), 100 U/mL penicillin-streptomycin (Invitrogen, cat. 15140122), and 2.5% Matrigel (Corning Inc., cat. 354248) for the first three passages. The 857933-349-R-J2-PDC line was cultured in 6C/Colon 1B media, which includes advanced DMEM/F-12 (Thermo Fisher Scientific, cat. 12634028), 10 mM HEPES (Thermo Fisher Scientific, cat. 15630080), 1X GlutaMAX supplement (Thermo Fisher Scientific, cat. 35050061), 0.1 mg/mL primocin (InvivoGen, cat. ant-pm-2), 10% defined fetal bovine serum, heat inactivated (HyClone Laboratories Inc., cat. SH30070.03HI), 50% L-WRN conditioned media (ATCC, cat. CRL-3276), 1.25 mM N-Acetyl-L-cysteine (Sigma-Aldrich, cat. A9165), 10 mM nicotinamide (Sigma-Aldrich, cat. N0636), 1X B-27 supplement (Thermo Fisher Scientific, cat. 17504044), 1X N-2 supplement (Thermo Fisher Scientific, cat. 17502048), 10 microM Y-27632 dihydrochloride (Tocris Bioscience, cat. 1254), and 50 ng/mL human EGF recombinant protein (Thermo Fisher Scientific, cat. PHG0311). The 485176-168-R4-J1-PDC line was cultured in Panc media, which includes all 6C/Colon 1B media components plus 100 ng/mL human FGF-10 (Thermo Fisher Scientific, cat. 100-26), 500 nM SB-431542 (Selleckchem, cat. S1067), and gastrin (Tocris, cat. 3006).
# […]
# [1] = curve of first compound, second compound 0.0316 µM
# [2] = curve of first compound, second compound 0.1 µM
# [3] = curve of first compound, second compound 0.316 µM
# [4] = curve of first compound, second compound 1 µM
# [5] = curve of first compound, second compound 3.16 µM
# [6] = curve of first compound, second compound 10 µM
# [7] = second compound 0.0316 µM, first compound 0.0316 µM
# [8] = second compound 0.0316 µM, first compound 0.1 µM
# [9] = second compound 0.0316 µM, first compound 0.316 µM
# [10] = second compound 0.0316 µM, first compound 1 µM
# [11] = second compound 0.0316 µM, first compound 3.16 µM
# [12] = second compound 0.0316 µM, first compound 10 µM
# [13] = second compound 0.1 µM, first compound 0.0316 µM
# [14] = second compound 0.1 µM, first compound 0.1 µM
# [15] = second compound 0.1 µM, first compound 0.316 µM
# [16] = second compound 0.1 µM, first compound 1 µM
# [17] = second compound 0.1 µM, first compound 3.16 µM
# [18] = second compound 0.1 µM, first compound 10 µM
# [19] = second compound 0.316 µM, first compound 0.0316 µM
# [20] = second compound 0.316 µM, first compound 0.1 µM
# [21] = second compound 0.316 µM, first compound 0.316 µM
# [22] = second compound 0.316 µM, first compound 1 µM
# [23] = second compound 0.316 µM, first compound 3.16 µM
# [24] = second compound 0.316 µM, first compound 10 µM
# [25] = second compound 1 µM, first compound 0.0316 µM
# [26] = second compound 1 µM, first compound 0.1 µM
# [27] = second compound 1 µM, first compound 0.316 µM
# [28] = second compound 1 µM, first compound 1 µM
# [29] = second compound 1 µM, first compound 3.16 µM
# [30] = second compound 1 µM, first compound 10 µM
# [31] = second compound 3.16 µM, first compound 0.0316 µM
# [32] = second compound 3.16 µM, first compound 0.1 µM
# [33] = second compound 3.16 µM, first compound 0.316 µM
# [34] = second compound 3.16 µM, first compound 1 µM
# [35] = second compound 3.16 µM, first compound 3.16 µM
# [36] = second compound 3.16 µM, first compound 10 µM
# [37] = second compound 10 µM, first compound 0.0316 µM
# [38] = second compound 10 µM, first compound 0.1 µM
# [39] = second compound 10 µM, first compound 0.316 µM
# [40] = second compound 10 µM, first compound 1 µM
# [41] = second compound 10 µM, first compound 3.16 µM
# [42] = second compound 10 µM, first compound 10 µM
# 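Note: spheroids exposed to compounds for one week before readout.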
# 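Throughout, for viability, T/C: percent viability relative to DMSO vehicle wells taken as 100%.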
compound,measurement,setting,value
COc1ccc([C@@H](O)c2cc(-c3ncnc4cc(N5CCOCC5)ccc34)c(F)cc2Cl)nn1,"viability, T/C",compound 0.0316 µM,95.9% and 104% and 114%
same,"viability, T/C",compound 0.1 µM,97.8% and 87.1% and 92.8%
same,"viability, T/C",compound 0.316 µM,103% (2×) and 99.2%
same,"viability, T/C",compound 1 µM,72.4% and 93.8% and 95%
same,"viability, T/C",compound 3.16 µM,74.5% and 61.3% and 76.2%
same,"viability, T/C",compound 10 µM,42.8% and 34.4% and 49.6%
same,IC50,curve of compound,7570 nM and 5130 nM and > 10000 nM
Cc1cnc(CNC(=O)c2c(=O)c3ccc(N4CCCN(C)CC4)nc3n3c2sc2ccccc23)cn1,"viability, T/C",compound 0.0316 µM,93.8% [middle of 12 runs]
same,"viability, T/C",compound 0.1 µM,68.8% [middle of 12 runs]
same,"viability, T/C",compound 1 µM,31.6% [middle of 12 runs]
CC(C)(O)C1CCC(Nc2ccc3ncc(-c4cccc(C(F)(F)F)c4)n3n2)CC1 (centres undefined) + CN(C)c1ccc(Nc2c3ccc(NC(=O)CCN4CCCC4)cc3nc3cc(NC(=O)CCN4CCCC4)ccc23)cc1,IC50,[1],789 nM
same,IC50,[2],691 nM
same,IC50,[3],455 nM
same,IC50,[4],44.7 nM
same,IC50,[5],< 31.6 nM
same,IC50,[6],< 31.6 nM
same,"viability, T/C",[7],103%
same,"viability, T/C",[8],106%
same,"viability, T/C",[9],99.8%
same,"viability, T/C",[10],37.1%
same,"viability, T/C",[11],0.9%
same,"viability, T/C",[12],0.94%
same,"viability, T/C",[13],97.5%
same,"viability, T/C",[14],92.2%
same,"viability, T/C",[15],102%
same,"viability, T/C",[16],27.6%
same,"viability, T/C",[17],0.49%
same,"viability, T/C",[18],0.46%
same,"viability, T/C",[19],65.9%
same,"viability, T/C",[20],65.7%
same,"viability, T/C",[21],72%
same,"viability, T/C",[22],11.3%
same,"viability, T/C",[23],0.66%
same,"viability, T/C",[24],0.64%
same,"viability, T/C",[25],59.3%
same,"viability, T/C",[26],25.4%
same,"viability, T/C",[27],28.7%
same,"viability, T/C",[28],3.69%
same,"viability, T/C",[29],0.2%
same,"viability, T/C",[30],0.13%
same,"viability, T/C",[31],5.54%
same,"viability, T/C",[32],1.6%
same,"viability, T/C",[33],6.22%
same,"viability, T/C",[34],0.39%
same,"viability, T/C",[35],0.12%
same,"viability, T/C",[36],0.29%
same,"viability, T/C",[37],0.6%
same,"viability, T/C",[38],0.45%
same,"viability, T/C",[39],0.27%
same,"viability, T/C",[40],0.46%
same,"viability, T/C",[41],0.22%
same,"viability, T/C",[42],0.31%
CC(C)(O)C1CCC(Nc2ccc3ncc(-c4cccc(C(F)(F)F)c4)n3n2)CC1 (centres undefined) + Cc1cnc(CNC(=O)c2c(=O)c3ccc(N4CCCN(C)CC4)nc3n3c2sc2ccccc23)cn1,IC50,[1],507 nM
same,IC50,[2],342 nM
same,IC50,[3],91.4 nM
same,IC50,[4],< 31.6 nM
same,IC50,[5],< 31.6 nM
same,IC50,[6],< 31.6 nM
same,"viability, T/C",[7],87.8%
same,"viability, T/C",[8],76.5%
same,"viability, T/C",[9],72.1%
same,"viability, T/C",[10],19%
same,"viability, T/C",[11],0.22%
same,"viability, T/C",[12],0.45%
same,"viability, T/C",[13],58.2%
same,"viability, T/C",[14],60%
same,"viability, T/C",[15],49.1%
same,"viability, T/C",[16],28%
same,"viability, T/C",[17],0.24%
same,"viability, T/C",[18],1.34%
same,"viability, T/C",[19],72.8%
same,"viability, T/C",[20],37.8%
same,"viability, T/C",[21],37.8%
same,"viability, T/C",[22],24.8%
same,"viability, T/C",[23],1.74%
same,"viability, T/C",[24],2.26%
same,"viability, T/C",[25],30.8%
same,"viability, T/C",[26],19.5%
same,"viability, T/C",[27],16%
same,"viability, T/C",[28],25.2%
same,"viability, T/C",[29],0.05%
same,"viability, T/C",[30],0.07%
same,"viability, T/C",[31],13.3%
same,"viability, T/C",[32],14.7%
same,"viability, T/C",[33],8.5%
same,"viability, T/C",[34],0.54%
same,"viability, T/C",[35],0.12%
same,"viability, T/C",[36],0.16%
same,"viability, T/C",[37],1.34%
same,"viability, T/C",[38],0.11%
same,"viability, T/C",[39],0.17%
same,"viability, T/C",[40],0.12%
same,"viability, T/C",[41],0.21%
same,"viability, T/C",[42],0.22%
